Assay results as given in patent US20080063628A1, “METHODS TO PROMOTE CELL DIFFERENTIATION” (priority 2006, published 2008).

What was measured:
[1] = tested on: late passage pancreatic-derived stromal cells; assay: Chronic trichostatin A treatment, gene expression by RT-PCR (Example 5); assay type: cell-based, human
Experimental: Pancreatic-derived stromal cells were obtained according to the methods described in Example 13. Cells were seeded into a 24-well tissue culture plate at a density of 5000/cm^2 and cultured in DMEM with 10% FBS under standard cell culture conditions until confluent. After the cells reached confluency, sample wells were treated with either 1.25 μM or 2.5 μM trichostatin A diluted in DMSO and medium; control wells received DMSO at an equivalent concentration. At 24 hour intervals over the three day culture period, cultures underwent a complete medium change, and a fresh dilution of trichostatin A or DMSO was added as appropriate. RNA samples were obtained from treated cultures daily after the initial addition of trichostatin A or DMSO. Culture medium was removed, cells were washed with PBS, and RLT lysis buffer with β-mercaptoethanol (Qiagen) was added. RNA was purified using the RNeasy Mini Kit (Qiagen), and RNA quantity and quality was determined using a spectrophotometer. cDNA was made using the iScript cDNA synthesis kit (BioRad).
(§1) Expression levels of Sox17, HNF-3 beta, Pdx-1, insulin, and glucagon were determined by RT-PCR. Samples of 20 ng cDNA were used in each reaction, which was performed on the Applied Biosystems 7500, according to the methods described in Example 15. Data were analyzed using the accompanying software. Human pancreas cDNA was included as a control. Results were normalized against GAPDH expression levels.
(§2) Real-time PCR amplifcation and quantitative analysis. Unless otherwise stated, all reagents were purchased from Applied Biosystems. Real-time PCR reactions were performed using the ABI PRISM™ 7500 Sequence Detection System. TAQMAN™ FAST UNIVERSAL PCR MASTER MIX™ (ABI, CA) was used with 20 ng of reverse transcribed RNA in a total reaction volume of 20 μl. Each cDNA sample was run in duplicate to allow correction of pipetting errors. Primers and FAM-labeled TAQMAN™ probes were used at concentrations of 200 nM. The level of expression for each target gene was normalized using the pre-developed Applied Biosystem's human glyceraldehyde-3-phosphate dehydrogenase (GAPDH) endogenous control kit. Primers and probes were designed using either ABI PRISM PRIMER EXPRESS™ software or a pre-developed ABI gene analysis kit. For each gene, either one of the primers or the probe were designed to be exon-boundary spanning. This eliminated the possibility of the primers/probe binding to any genomic DNA present. The primer and probe sets are listed as follows: Pdx-1 (Hs00426216), Insulin (Hs00355773), glucagon (Hs00174967), and FoxA2 (HNF 3-beta) (Hs00232764). The remaining primers were designed using the PRIMERS program (ABI, CA). After an initial 95° C. incubation for 20 sec, samples were cycled 40 times in two stages: a denaturation step at 95° C. for 3 sec, followed by an annealing/extension step at 60° C. for 30 sec.
(§3) For each primer/probe set, a cycle time value was determined as the cycle number at which the fluorescence intensity of the PCR reaction reached a specific value in the middle of the exponential region of amplification. An increase in expression of a gene corresponded to a decrease in the number of cycles required for the fluorescence intensity to reach this value.

[2] = tested on: late passage (P14) pancreatic-derived stromal cells; assay: Trichostatin A 24 h time course, gene expression by Real-Time PCR (Example 3); assay type: cell-based, human; conditions: 2.5 μM
Experimental: Human pancreatic-derived stromal cells were obtained according to the methods described in Example 13. Cells were seeded into a 24-well tissue culture plate at a density of 5000/cm^2 and cultured in DMEM containing 10% fetal bovine serum under standard cell culture conditions until confluent. After the cells reached confluency, 2.5 μM trichostatin A, diluted in DMSO and medium was added to the wells. Parallel cultures were treated with an equivalent concentration of DMSO as a vehicle control. RNA samples were obtained from treated cultures at 30 minutes, 1.5 hours, 3 hours, 6 hours, 12 hours and 24 hours following the addition of trichostatin A or DMSO. Culture medium was removed, the cells were washed with PBS, and RLT lysis buffer with β-mercaptoethanol (Qiagen) was added. RNA was purified using the RNeasy Mini Kit (Qiagen). RNA quantity and quality were determined using a spectrophotometer, and CDNA was made using the iScript cDNA synthesis kit (BioRad).
as §1, with “The expression” for “Expression”, “Real-Time PCR.” for “RT-PCR.”, “7500” for “7500,”, “positive control, and results” for “control. Results”
as §2, §3

[3] = 1.25 μM renewed daily, 24 hours
[4] = 1.25 μM renewed daily, 48 hours
[5] = 1.25 μM renewed daily, 72 hours

## CC(/C=C/C(=O)NO)=C\[C@@H](C)C(=O)c1ccc(N(C)C)cc1 [trichostatin A]
[1]; [3]
  HNF-3 beta gene expression: +++ (detectable at less than 35 cycles by RT-PCR with std error less than 0.9)
  Insulin gene expression: nd (not detectable at >40 cycles by RT-PCR)
  PDX-1 gene expression: + (detectable between 35 and 40 cycles by RT-PCR)
  Sox17 gene expression: +++ (detectable at less than 35 cycles by RT-PCR with std error less than 0.9)
  glucagon gene expression: + (detectable between 35 and 40 cycles by RT-PCR)
[1]; [4]
  HNF-3b gene expression: ++ (detectable at less than 35 cycles by RT-PCR with std error greater than 0.9)
  Insulin gene expression: nd (not detectable at >40 cycles by RT-PCR)
  PDX-1 gene expression: +++ (detectable at less than 35 cycles by RT-PCR with std error less than 0.9)
  Sox17 gene expression: +++ (detectable at less than 35 cycles by RT-PCR with std error less than 0.9)
  glucagon gene expression: + (detectable between 35 and 40 cycles by RT-PCR)
[1]; [5]
  HNF-3b gene expression: +++ (detectable at less than 35 cycles by RT-PCR with std error less than 0.9)
  Insulin gene expression: nd (not detectable at >40 cycles by RT-PCR)
  PDX-1 gene expression: +++ (detectable at less than 35 cycles by RT-PCR with std error less than 0.9)
  Sox17 gene expression: +++ (detectable at less than 35 cycles by RT-PCR with std error less than 0.9)
  glucagon gene expression: + (detectable between 35 and 40 cycles by RT-PCR)
[1]; 2.5 μM renewed daily, 24 hours
  HNF-3 beta gene expression: + (detectable between 35 and 40 cycles by RT-PCR)
  Insulin gene expression: nd (not detectable at >40 cycles by RT-PCR)
  PDX-1 gene expression: +++ (detectable at less than 35 cycles by RT-PCR with std error less than 0.9)
  Sox17 gene expression: +++ (detectable at less than 35 cycles by RT-PCR with std error less than 0.9)
  glucagon gene expression: nd (not detectable at >40 cycles by RT-PCR)
[1]; 2.5 μM renewed daily, 48 hours
  HNF-3b gene expression: + (detectable between 35 and 40 cycles by RT-PCR)
  Insulin gene expression: nd (not detectable at >40 cycles by RT-PCR)
  PDX-1 gene expression: +++ (detectable at less than 35 cycles by RT-PCR with std error less than 0.9)
  Sox17 gene expression: +++ (detectable at less than 35 cycles by RT-PCR with std error less than 0.9)
  glucagon gene expression: + (detectable between 35 and 40 cycles by RT-PCR)
[1]; 2.5 μM renewed daily, 72 hours
  HNF-3b gene expression: +++ (detectable at less than 35 cycles by RT-PCR with std error less than 0.9)
  Insulin gene expression: nd (not detectable at >40 cycles by RT-PCR)
  PDX-1 gene expression: + (detectable between 35 and 40 cycles by RT-PCR)
  Sox17 gene expression: +++ (detectable at less than 35 cycles by RT-PCR with std error less than 0.9)
  glucagon gene expression: nd (not detectable at >40 cycles by RT-PCR)
[2]; 0.5 h
  HNF-3 beta gene expression: nd (not detectable at >40 cycles by RT-PCR)
  Insulin gene expression: nd (not detectable at >40 cycles by RT-PCR)
  PDX-1 gene expression: nd (not detectable at >40 cycles by RT-PCR)
  Sox17 gene expression: + (detectable between 35 and 40 cycles by RT-PCR)
  glucagon gene expression: nd (not detectable at >40 cycles by RT-PCR)
[2]; 1.5 h
  HNF-3 beta gene expression: nd (not detectable at >40 cycles by RT-PCR)
  Insulin gene expression: nd (not detectable at >40 cycles by RT-PCR)
  PDX-1 gene expression: nd (not detectable at >40 cycles by RT-PCR)
  Sox17 gene expression: nd (not detectable at >40 cycles by RT-PCR)
  glucagon gene expression: nd (not detectable at >40 cycles by RT-PCR)
[2]; 3 h
  HNF-3 beta gene expression: nd (not detectable at >40 cycles by RT-PCR)
  Insulin gene expression: nd (not detectable at >40 cycles by RT-PCR)
  PDX-1 gene expression: nd (not detectable at >40 cycles by RT-PCR)
  Sox17 gene expression: + (detectable between 35 and 40 cycles by RT-PCR)
  glucagon gene expression: nd (not detectable at >40 cycles by RT-PCR)
[2]; 3 hours
  Sox-17 RT-PCR detection cycle: > 35 cycles
[2]; 6 h
  HNF-3 beta gene expression: + (detectable between 35 and 40 cycles by RT-PCR)
  Insulin gene expression: nd (not detectable at >40 cycles by RT-PCR)
  PDX-1 gene expression: nd (not detectable at >40 cycles by RT-PCR)
  Sox17 gene expression: + (detectable between 35 and 40 cycles by RT-PCR)
  glucagon gene expression: nd (not detectable at >40 cycles by RT-PCR)
[2]; 6 hours
  HNF-3 beta RT-PCR detection cycle: > 35 cycles
[2]; 12 h
  HNF-3 beta gene expression: + (detectable between 35 and 40 cycles by RT-PCR)
  Insulin gene expression: nd (not detectable at >40 cycles by RT-PCR)
  PDX-1 gene expression: + (detectable between 35 and 40 cycles by RT-PCR)
  Sox17 gene expression: + (detectable between 35 and 40 cycles by RT-PCR)
  glucagon gene expression: nd (not detectable at >40 cycles by RT-PCR)
[2]; 12 hours
  Pdx-1 RT-PCR detection cycle: > 35 cycles
[2]; 24 h
  HNF-3 beta gene expression: +++ (detectable at less than 35 cycles by RT-PCR with std error less than 0.9)
  Insulin gene expression: nd (not detectable at >40 cycles by RT-PCR)
  PDX-1 gene expression: +++ (detectable at less than 35 cycles by RT-PCR with std error less than 0.9)
  Sox17 gene expression: +++ (detectable at less than 35 cycles by RT-PCR with std error less than 0.9)
  glucagon gene expression: + (detectable between 35 and 40 cycles by RT-PCR)
[2]; 24 hours
  HNF-3 beta RT-PCR detection cycle: < 35 cycles
  HNF-3 beta gene expression relative to human pancreas: ~0.075 % of human pancreas
  Pdx-1 RT-PCR detection cycle: < 35 cycles
  Pdx-1 gene expression relative to human pancreas: ~0.2 % of human pancreas levels
  Sox-17 RT-PCR detection cycle: < 35 cycles
  Sox-17 gene expression relative to human pancreas: ~3 % of human pancreas levels
  glucagon RT-PCR detection cycle: 35-40 cycles
